Legend:
[1] = tested on: K. pneumoniae strain BAA1705 KPC+; test: Selective lysis test, BacUni QuickFISH staining (Example 3); type: cell-based; details: FIG. 5, meropenem 10 μg/ml, 30 min, SDS lysis
Source text: (§1) An alternative to the spectrophotometer-based measurement of changes in turbidity for measuring cell lysis following treatment with the cell lysis conditions in Examples 1 and 2 is to stain samples using a stain that distinguishes between intact cells and lysed cells. In this example staining with BacUni QuickFISH™ was used to identify intact (i.e., non-lysed) cells. BacUN1 is a universal bacteria PNA probe that binds to an rRNA sequence present in most Gram-positive and Gram-negative bacteria. The PNA probe binds to universal rRNA in intact bacterial cells and the entire cell will appears green with fluorescent microscopy. If the bacterial cell had been lysed then the rRNA target would have been released from the bacterial cell and even of somewhat labeled it would not appear as a fluorescent bacterial cell.
(§2) An isolated colony from an overnight Tryptocase Soy Agar (TSA) plate of each bacteria was suspended in 1 ml Tryptocase Soy Broth (TSB) in a 5 ml BD polystyrene round bottom tube. TSB cultures were incubated at 37° C. overnight. Ten μl of overnight culture was inoculated into 1 ml TSB and incubated shaking at 37° C. for three hours. Two 250 μl aliquots of each log-phase culture was transferred to two 2 ml Eppendorf microcentrifuge tubes. One tube contained 500 μl of Normal Saline (BD); the second tube contained 500 μl Normal Saline with meropenem at 10 μg/ml. Tubes were inverted and then incubated at 37° C. stagnant for thirty minutes. Then […] (0.5% SDS in PSB) was added to each tube and the tubes were vortexed for 5 seconds. Post incubation, the entire culture was filtered through a 1 uM polycarbonate 18 mm filter. The filter was transferred to a plain glass slide and placed on a 55° C. heat block. Then 2 drops of 100% methanol were added to adhere the filter to the slide. Then 30 μl of BacUni QuickFISH™ hybridization buffer was added to the slide and a 50×22 mm coverslip was applied. The slide was then incubated at 55° C. for 15 minutes. The slide was viewed on fluorescence microscope using 60× oil immersion on Dual TxR/FITC. Images were taken with a 1 second exposure.

[2] = tested on: K. pneumoniae strain 13882; test: as above; type: cell-based; details: FIG. 2; K. pneumoniae 13882; meropenem 10 μg/ml, 30 min, SDS lysis
Source text: as §1, §2

[3] = tested on: K. pneumoniae strain BAA2146 NDM+; test: as above; type: cell-based; details: FIG. 5, meropenem 10 μg/ml, 30 min, SDS lysis
Source text: as §1, §2

[4] = tested on: K. pneumoniae strain 3456; test: as above; type: cell-based; details: FIG. 1; K. pneumoniae 3456; meropenem 10 μg/ml, 30 min, SDS lysis
Source text: as §1, §2

K. pneumo 13882 = test: Selective lysis test, OD600, meropenem and cefotaxime (Example 2); type: cell-based, K. pneumoniae
Experimental: (§3) In this experiment the following strains were tested: strain K. pneumoniae 13882 (previously considered meropenem sensitive and cefotaxime sensitive); E. coli BAA-197 (ESBL) (which expresses an extended-spectrum (beta)-lactamase enzyme and was previously considered meropenem sensitive and cefotaxime resistant); K. pneumoniae BAA-1705 (KPC) (which expresses a carbapenemase enzyme and was previously considered meropenem resistant and cefotaxime resistant); and K. pneumoniae BAA-2146 (NDM1) (which expresses the metallo-beta-lactamase-1 enzyme and was previously considered meropenem resistant and cefotaxime resistant).
(§4) An isolated colony from an overnight Tryptocase Soy Agar (TSA) plate of each bacteria was suspended in 1 ml Tryptocase Soy Broth (TSB) in a 5 ml BD polystyrene round bottom tube. TSB cultures were incubated at 37° C. for 1.5 hours shaking. Three 250 μl aliquots of each stationary-phase culture were then transferred to three 2 ml Eppendorf microcentrifuge tubes. One tube contained 500 μl of Normal Saline (BD); the second tube contained 500 μl Normal Saline with meropenem at 10 μg/ml; and the third tube contained 500 μl Normal Saline with cefotaxime (abbreviated […]) at 10 μg/ml. Tubes were inverted then incubated at 37° C. stagnant for thirty minutes. Then […] of lysis buffer (0.5% SDS in PSB) was added to each tube and each tube was vortexed for 5 seconds. Post incubation, all tubes were spun at 10000 G for 5 minutes. Supernatant was decanted and the pellet resuspended in Normal Saline. Tubes were vortexed. OD600 was measured using Eppendorf uvettes in a spectrophotometer. The delta between the control and the meropenem normal saline, or the control and the cefotaxime normal saline was used to determine susceptibility.

[5] = tested on: K. pneumo BAA-2146 (NDM1); test: as above; type: cell-based, K. pneumoniae
Experimental: as §3, §4

K. pneumo BAA-1705 (KPC) = test: as above; type: cell-based, K. pneumoniae
Experimental: as §3, §4

## C[C@@H](O)[C@H]1C(=O)N2C(C(=O)O)=C(S[C@@H]3CN[C@H](C(=O)N(C)C)C3)[C@H](C)[C@H]12 [meropenem]
[1]
  number of BacUni QuickFISH stained cells, treated vs not treated: similarity in the number of stained cells
[2]
  number of BacUni QuickFISH stained cells, treated vs not treated: significant reduction in the number of stained cells
[3]
  number of BacUni QuickFISH stained cells, treated vs not treated: similarity in the number of stained cells
[4]
  number of BacUni QuickFISH stained cells, treated vs not treated: significant reduction in the number of stained cells
K. pneumo 13882; K. pneumo 13882, OD600 vs control
  % diff: 65.1%
K. pneumo 13882; K. pneumo 13882, antibiotic 10 μg/ml, 30 min, SDS lysis buffer + vortex, 1.5 h culture
  OD600: 0.127
K. pneumo 13882; K. pneumoniae 13882
  assay score (sensitive or resistant): sensitive
[5]; K. pneumo BAA-2146 (NDM1), OD600 vs control
  % diff: −0.3%
[5]; K. pneumo BAA-2146 (NDM1), antibiotic 10 μg/ml, 30 min, SDS lysis buffer + vortex, 1.5 h culture
  OD600: 0.301
[5]; K. pneumoniae BAA-2146 (NDM1)
  assay score (sensitive or resistant): resistant
K. pneumo BAA-1705 (KPC); K. pneumo BAA-1705 (KPC), OD600 vs control
  % diff: 16.6%
K. pneumo BAA-1705 (KPC); K. pneumo BAA-1705 (KPC), antibiotic 10 μg/ml, 30 min, SDS lysis buffer + vortex, 1.5 h culture
  OD600: 0.423
K. pneumo BAA-1705 (KPC); K. pneumoniae BAA-1705 (KPC)
  assay score (sensitive or resistant): resistant
